# Literature values in article PMC4894568 (PLoS ONE, 2016).
# Experiments:
# Influenza A virus [1] = system: Influenza A virus
# Influenza A virus [2] = settings: mouse, in vivo
substance,measurement,setting,value
LL-37,infectivity of Influenza A virus,Influenza A virus [1],influenced the infectivity
same,infection with Influenza A virus in an infection model,Influenza A virus [2],prevented or inhibited the infection
